# Measurements as given in ChEMBL document CHEMBL1155502, “Modulation of 11beta-hydroxysteroid dehydrogenase type 1 activity by 1,5-substituted 1H-tetrazoles” (Bioorg Med Chem Lett, 2010).
# Assay: Metabolic stability in human liver microsomes assessed as compound remaining after 30 mins
# Type: ADME, Microsome
# Conditions: read-out: Stability
row,remaining at 0.5 h [%],SMILES
1,14,COc1cccc(C(=O)CCc2nnnn2-c2ccccc2)c1
2,6,COc1cccc(-n2nnnc2CCC(=O)c2ccccc2)c1
3,37,N#Cc1ccc(-n2nnnc2CCC(=O)c2ccccc2)cc1
4,21,O=C(CCc1nnnn1-c1ccccc1)c1cccc(F)c1
5,8,O=C(CCc1nnnn1-c1ccccc1)c1cccc(Cl)c1
6,88,O=C(CCc1nnnn1-c1ccccc1)c1ccccc1
7,22,Cc1ccccc1-n1nnnc1CCC(=O)c1ccccc1
8,12,COc1ccc(-n2nnnc2CCC(=O)c2ccccc2)cc1
9,2,Cc1ccc(-n2nnnc2CCC(=O)c2ccccc2)cc1
10,34,O=C(CCc1nnnn1-c1ccc(Cl)cc1)c1ccccc1
11,42,COc1ccccc1-n1nnnc1CCC(=O)c1ccccc1
12,2,Cc1cccc(-n2nnnc2CCC(=O)c2ccccc2)c1
13,81,O=C(CCc1nnnn1-c1cccnc1)c1ccccc1

# More lines, now with the values behind:
row,SMILES,remaining at 0.5 h [%]
1,O=C(CCc1nnnn1-c1ccccc1)C1CCCCC1,11
2,O=C(COc1nnnn1-c1ccccc1)c1ccccc1,4
3,O=C(CCc1nnnn1Cc1ccccc1)c1ccccc1,33
4,O=C(CCn1nnnc1-c1cccc(Cl)c1)c1ccccc1,20
5,O=C(CCn1nnnc1-c1cccnc1)c1ccccc1,81
6,O=C(CCn1nnnc1-c1ccccc1)c1ccccc1,29
7,COc1ccccc1-c1nnnn1CCC(=O)c1ccccc1,9
8,O=C(CCn1nnnc1-c1ccc2c(c1)OCO2)c1ccccc1,11
9,CC(C)(C)C(=O)C[S+]([O-])c1nnnn1-c1ccccc1 (configuration not stated),25
10,CC(C)(C)C(=O)CS(=O)(=O)c1nnnn1-c1ccccc1,4
11,O=C(CCc1nnnn1C1CCCCC1)c1ccccc1,14
12,O=C(CCn1nnnc1-c1ccsc1)c1ccccc1,6
13,O=C(CCc1nnnn1C1CC1)c1ccccc1,73
14,O=C(CCn1nnnc1-c1cnccn1)c1ccccc1,31
15,O=C(CCn1nnnc1-c1ncccn1)c1ccccc1,53
16,COc1ccc(-c2nnnn2CCC(=O)c2ccccc2)cc1,18
17,O=C(CCn1nnnc1-c1ccccc1Cl)c1ccccc1,5
18,O=C(CCc1nnnn1C1CCc2ccccc21)c1ccccc1 (configuration not stated),1
19,O=C(CCc1nnnn1C1CCCc2ccccc21)c1ccccc1 (configuration not stated),7
